In one series the target is T1, TYK2-JH2 domain (Homo sapiens, UniProt P29597).
T1 construct: IC50 on JH2 domain activity (nM)
Nature of the series: Binding activity test for JH2 domain of TYK2 (Tb-antibody/tracer FRET). To be noted: for JAK1/TYK2 selectivity: ratio JAK1-JH2 IC50 / TYK2-JH2 IC50. An outline of the steps: (§1)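 FRET read-out after 60 min at 25° C plus overnight at 4° C; tracer displacement detected via Tb-labelled antibody on the JH2 domain. Dose-response used 11 points at 3-fold dilution.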

The target of the next series is T2, JAK1-JH2 domain (Homo sapiens, UniProt P23458).
T2 construct: IC50 on JH2 domain activity (nM)
T2 sequence (P23458 583-855 limits assumed): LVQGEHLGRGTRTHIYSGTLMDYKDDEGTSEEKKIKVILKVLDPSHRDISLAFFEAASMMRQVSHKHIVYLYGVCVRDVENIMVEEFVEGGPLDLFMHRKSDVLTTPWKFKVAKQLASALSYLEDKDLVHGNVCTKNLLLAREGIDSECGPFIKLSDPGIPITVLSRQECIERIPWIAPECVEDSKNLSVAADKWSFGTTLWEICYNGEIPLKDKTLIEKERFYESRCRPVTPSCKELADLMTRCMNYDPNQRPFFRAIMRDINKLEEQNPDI
Kind of series: Binding activity test for JH2 domain of JAK1 (Tb-antibody/tracer FRET). An outline of the steps: as §1

Series [1] addresses T3, Ba/F3-FL-TYK2-P760L cells (Homo sapiens, UniProt P29597, P760L, cells depend on it).
T3 construct: BaF3-FL-T2P760L (nM)
Nature of the series: Anti-proliferative assay, Ba/F3-FL-TYK2-P760L cells (Cell-Titer Glo). To be noted: 72 h, read-out: BaF3-FL-T2P760L IC50. The format is cell-based. An outline of the steps:
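Compound exposure ran 72 h at 37 °C in 5% CO2 across nine 3-fold concentrations from a 20 μM top dose, added 24 h after seeding 2000 cells/well.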

For the next series, the system named is pSTAT1. Nature of the series: Phosphorylation inhibition of STAT in human whole blood, IFN-alpha stimulated (flow cytometry). Particulars: 20 min; human whole blood, IFN-alpha 20 mins, CD3 cells; read-out: IC50 on pSTAT1 inhibition in h WB. The format is cell-based. The protocol:
Phosphorylation Inhibition of STAT in Human PBMC and Human Whole Blood Testing:
The inhibitory potential of test articles in human PBMC and human whole blood assay was evaluated by the method of flow cytometry.
IFN-alpha will activate JAK1 and TYK2 kinase in T cells by binding to IFN receptors, and then lead to phosphorylation of STAT1 and STAT2. The phosphorylated STAT1 enter nuclear and promote transcription and expression of IFN-gamma. To evaluate the efficacy of TYK2i in T cells, freshly prepared human PBMC or freshly collected human whole blood will be stimulated with certain unit of human IFN-alpha (Universal Type I IFN(1MU), R&D, 11200-2) for 20 mins in incubator. After stimulation, fix cells with Phosflow™ Fix Buffer I (BD, 557870), and then collect fixed cells by centrifugation (500 g, 8 min). Wash cells once with pre-cooled PBS, and then permeabilize cells with cold Perm Buffer III buffer (BD, 558050) for 45 mins on ice. Collect cells by centrifugation (600 g, 8 min) and washed twice with cold PBS. Stain cells with anti-human CD3 (FITC Mouse Anti-Human CD3, BD, 555332) and anti-pSTAT1_Y701(Alexa Fluor 647 Mouse Anti-Stat1 (pY701), BD, 612597) antibodies. Detect pSTAT1 by flow cytometry (CytoFlex S) and analyze data with FlowJo and GraphPad Prism 8 software. IC50 values of test articles were determined using 4-parameter logistic equation.
On the technique in general: A flow cytometer gives signals particle by particle.

Series [2] in a line: Microsomal metabolic stability assay. The format is in vitro ADME. To be noted: pH 7.4, 0.5 mg/mL protein, 1 μM compound. An outline of the steps: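 Parent loss was tracked by LC/MS/MS at 0, 5, 15, 30 and 45 min, with half-life derived from the ln(% remaining)–time slope. Incubation at 37 °C, pH 7.4 phosphate/EDTA buffer: 0.5 mg/mL microsomes, 1 μM compound, NADPH-regenerated (2 mM).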

A short description of series [3]: Hepatocytes metabolic stability assay. The format is in vitro ADME. To be noted: cryopreserved hepatocytes, human hepatocytes, 1.0×10^6 cells/mL; for half-life at 1 μM: read-out: Human hepatocyte stability T1/2. As to the method:
Hepatocytes Metabolic Stability Assay
The vials of cryopreserved hepatocytes were removed from the liquid nitrogen container and immediately immersed in a 37° C. water bath for approximately 2 min. The melted ice pellets were transferred into tubes containing 50 mL of pre-warmed thawing medium and mixed well by gently inverting the tubes, and then centrifuged at 500 rpm for 3 minutes at room temperature. The supernatants were discarded, and cell pellets were re-suspended by adding appropriate volumes of pre-warmed incubation medium. The cells viability of each species was determined using Trypan Blue exclusion. Add 50 μL of pre-warmed 2× dosing solution to the wells designated for different time points. Then 50 μL of cells suspension (2×10^6 cells/mL) were added into appropriate wells at corresponding time points of T15, T30, T60, T120. Start timing and put the plate in an incubator at 37° C. For TO sample, add 300 μL of ACN containing internal standard to the wells, mix gently, then add 50 μL of pre-warmed hepatocytes solution (2×10^6 cells/mL). The concentration of test compound was 1 μM and 1.0×10^6 cells/mL in the final incubation. At each corresponding time point, test and control compounds reaction samples were stopped by adding 300 μL acetonitrile containing internal standard. All sample plates were thoroughly mixed and centrifuged at 5000×g for 15 minutes. The supernatants were diluted at ratio of 1:1 with ultra-pure water for test and positive controls. Then submitted for LC-MS/MS analysis.
The analyte/internal standard peak area ratios were converted to percentage remaining with the following equation: […]
The in vitro elimination constant, k of test compounds and control compounds were calculated from a log linear plot of % Remaining versus time, then the half-life (T1/2), the estimation of the in vitro hepatic intrinsic clearance (CLint) values were calculated from substrate disappearance rate in hepatocytes incubation: […]

Series [4] can be described thus: Plasma protein binding by equilibrium dialysis. The format is in vitro ADME. To be noted: human plasma, equilibrium dialysis 5 hours at 37° C.; read-out: % Bound (human) (converted). As to the method: Plasma Protein Binding by Equilibrium Dialysis
Aliquots of test compound stock solution and warfarin stock solution were spiked into plasma to give the matrix solutions with theoretical concentrations of test compound at 0.2 and 2 μM or warfarin at 2 μM. Immediately transfer 50 μL of the spiked plasma solution suspension to a 96-well plate to act as T=0 control sample. Assemble the dialysis set up following the manufacturer's instructions. Load cells with 150 μL of plasma sample and dialyzed against equal volume of dialysis buffer (PBS). The assay is performed in duplicate. Cover the unit with gas permeable lid and incubate for 5 hours at 37° C. at 100 rpm in a constant temperature shaking box. At the end of incubation, remove lid and pipette 50 μL of post-dialysis samples from both buffer and plasma solution chambers into separated 96-well plate for analysis, respectively. Add 50 μL of plasma solution to the buffer samples, and an equal volume of PBS to the collected plasma solution samples. Shake the plate at 1000 rpm for 2 minutes and add 600 μL of 50% ACN/MeOH containing an appropriate internal standard (IS) to precipitate protein and release compound. Vortex at 1000 rpm for 10 minutes. Centrifuge for 10 minutes at 4000 rpm. Then transfer 75 μL of the supernatant to new 96-well plates for analysis. Add 150 μL of distilled water to each sample and mix for analysis by LC-MS/MS.
The free rate (% Unbound), binding rate (% Bound), and recovery rate (% Recovery) of the compound are calculated as follows: […]
Background: In equilibrium dialysis free small molecules cross a membrane that holds back macromolecules.

The mark [5] stands for this setting: dog liver microsomes, read-out: Dog LM Clint.
The mark [6] stands for this setting: dog liver microsomes, read-out: Dog LM T½.
The mark [7] stands for this setting: human liver microsomes, read-out: Human LM Clint.
[8] abbreviates: human liver microsomes, read-out: Human LM T½.
Setting [9] is: rat liver microsomes, read-out: Rat LM Clint.
[10] abbreviates: rat liver microsomes, read-out: Rat LM T½.

Read-outs that look alike come from different tables or passages of the source. A value given as a limit tells only on which side of the number the result lay.

T3 sequence (P29597 whole entry P760L): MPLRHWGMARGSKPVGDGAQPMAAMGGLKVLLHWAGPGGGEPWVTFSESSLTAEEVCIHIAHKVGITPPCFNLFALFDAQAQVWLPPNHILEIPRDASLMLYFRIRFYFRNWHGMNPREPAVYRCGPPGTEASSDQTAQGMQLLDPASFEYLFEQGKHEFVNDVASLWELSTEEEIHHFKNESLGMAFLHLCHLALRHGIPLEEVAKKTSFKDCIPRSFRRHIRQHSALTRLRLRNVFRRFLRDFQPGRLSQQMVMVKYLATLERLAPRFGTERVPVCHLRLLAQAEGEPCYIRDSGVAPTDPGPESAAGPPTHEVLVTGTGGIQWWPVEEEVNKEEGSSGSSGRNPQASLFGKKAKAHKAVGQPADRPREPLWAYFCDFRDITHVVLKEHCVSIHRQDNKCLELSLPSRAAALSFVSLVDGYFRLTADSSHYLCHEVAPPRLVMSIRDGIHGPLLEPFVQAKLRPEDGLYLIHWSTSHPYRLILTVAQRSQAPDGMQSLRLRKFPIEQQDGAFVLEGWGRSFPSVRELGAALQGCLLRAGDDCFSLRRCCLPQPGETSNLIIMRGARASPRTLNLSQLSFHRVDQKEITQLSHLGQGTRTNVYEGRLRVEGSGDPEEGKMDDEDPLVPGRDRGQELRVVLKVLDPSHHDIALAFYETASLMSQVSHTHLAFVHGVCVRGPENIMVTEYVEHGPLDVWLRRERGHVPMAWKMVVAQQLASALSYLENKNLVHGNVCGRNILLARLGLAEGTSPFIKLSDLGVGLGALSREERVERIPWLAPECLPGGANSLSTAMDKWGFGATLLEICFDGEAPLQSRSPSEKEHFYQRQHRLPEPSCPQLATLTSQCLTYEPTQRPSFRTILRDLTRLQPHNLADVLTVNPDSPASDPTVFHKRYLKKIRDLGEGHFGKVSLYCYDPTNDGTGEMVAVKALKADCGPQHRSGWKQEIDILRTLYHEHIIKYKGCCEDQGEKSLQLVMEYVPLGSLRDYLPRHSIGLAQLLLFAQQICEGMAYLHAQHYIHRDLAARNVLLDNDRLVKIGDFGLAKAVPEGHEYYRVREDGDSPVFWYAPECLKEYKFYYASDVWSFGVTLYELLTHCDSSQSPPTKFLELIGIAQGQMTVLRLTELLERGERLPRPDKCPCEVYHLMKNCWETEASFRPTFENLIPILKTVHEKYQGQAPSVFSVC
T1 sequence (P29597 589-875 limits assumed): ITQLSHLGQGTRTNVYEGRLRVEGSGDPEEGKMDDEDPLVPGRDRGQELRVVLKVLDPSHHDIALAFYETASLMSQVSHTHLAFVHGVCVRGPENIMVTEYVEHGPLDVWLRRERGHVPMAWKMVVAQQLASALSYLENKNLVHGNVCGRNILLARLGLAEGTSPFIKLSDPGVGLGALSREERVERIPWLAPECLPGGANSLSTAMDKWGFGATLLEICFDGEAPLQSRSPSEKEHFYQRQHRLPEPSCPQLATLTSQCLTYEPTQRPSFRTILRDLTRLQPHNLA

Usually IC50 stands for the concentration that gives 50% inhibition. On to `[2H]C([2H])([2H])NC(=O)c1cnc(Nc2cc(C)nc(C)n2)cc1Nc1cc(F)c2cnn(CC)c2c1OC` [Example 152, 6-((2,6-Dimethylpyrimidin-4-yl)amino)-4-((1-ethyl-4-fluoro-7-methoxy-1H-indazol-6-yl)amino)-N-(methyl-d3)nicotinamide], for which the IC50 amounted to 0.171 nM at TYK2-JH2 domain, 10.7 nM at JAK1-JH2 domain and 78.5 nM in the series with pSTAT1. Besides, the JAK1/TYK2 selectivity on TYK2-JH2 domain amounted to 62.6. Also, the GI50 in series [1] amounted to 27.9 nM. Besides, the microsomal CLint at 1 μM in series [2] (setting [5]) was found to be 478 µL/min/mg; in series [2] (setting [7]), 42.4 µL/min/mg; in series [2] (setting [9]), 54.1 µL/min/mg. In addition, the half-life at 1 μM in series [2] (setting [6]) is 2.9 min; in series [2] (setting [8]), 32.7 min; in series [2] (setting [10]) it was 25.6 min; in series [3], > 240 min.
As for `CNC(=O)c1cnc(NC(=O)C2CC2)cc1Nc1nn(C)c2ccn(CC(F)(F)F)c(=O)c12` [Example 52, 6-(Cyclopropanecarboxamido)-N-methyl-4-((1-methyl-4-oxo-5-(2,2,2-trifluoroethyl)-4,5-dihydro-1H-pyrazolo[4,3-c]pyridin-3-yl)amino)nicotinamide], in series [1], the GI50 worked out at 127 nM. In addition, the microsomal CLint at 1 μM in series [2] (setting [5]) was 11.1 µL/min/mg; in series [2] (setting [7]), 8.05 µL/min/mg; in series [2] (setting [9]) it was 30.8 µL/min/mg. Further, the half-life at 1 μM in series [2] (setting [6]) was determined as 125 min; in series [2] (setting [8]), 172 min; in series [2] (setting [10]) it was 45 min. Further, the fraction unbound at 5 h in series [4] was 0.041.
With `[2H]C([2H])([2H])NC(=O)c1cnc(Nc2ccn(C)n2)cc1Nc1cc(F)c2cnn(CC)c2c1OC` [Example 151, 4-((1-Ethyl-4-fluoro-7-methoxy-1H-indazol-6-yl)amino)-N-(methyl-d3)-6-((1-methyl-1H-pyrazol-3-yl)amino)nicotinamide], the IC50 at TYK2-JH2 domain was determined as 0.46 nM; at JAK1-JH2 domain it was 13.1 nM; in the series on pSTAT1, 1860 nM. At TYK2-JH2 domain, the JAK1/TYK2 selectivity is given as 28.5. Besides, the GI50 in series [1] came out at 77.7 nM. The microsomal CLint at 1 μM was found to be 46.8 µL/min/mg in series [2] (setting [5]), 63.5 µL/min/mg in series [2] (setting [7]) and 66.3 µL/min/mg in series [2] (setting [9]). Moreover, the half-life at 1 μM is 29.6 min in series [2] (setting [6]), 21.8 min in series [2] (setting [8]), 20.9 min in series [2] (setting [10]) and 194 min in series [3]. The CLint scaled at 1 μM in series [3] (read-out: Human hepatocyte Clint(liver)) stood at 9.1 mL/min/kg.
Turning to `[2H]C([2H])([2H])NC(=O)c1cnc(NC(=O)C2CC2)cc1Nc1nn(CCCOC)c2ccn(CC(F)(F)F)c(=O)c12` [Example 96, 6-(Cyclopropanecarboxamido)-4-((1-(3-methoxypropyl)-4-oxo-5-(2,2,2-trifluoroethyl)-4,5-dihydro-1H-pyrazolo[4,3-c]pyridin-3-yl)amino)-N-(methyl-d3)nicotinamide], the GI50 in series [1] was found to be 351 nM. The microsomal CLint at 1 μM in series [2] (setting [7]) was found to be 16.7 µL/min/mg. Moreover, in series [2] (setting [8]), the half-life at 1 μM was determined as 83 min. Further, in series [4], the fraction unbound at 5 h was 0.171.
In the case of `[2H]C([2H])([2H])NC(=O)c1cnc(NC(=O)C2CC2)cc1Nc1cn(C)c2c(F)cn(CC(F)F)c(=O)c12` [Example 158, 6-(Cyclopropanecarboxamido)-4-((5-(2,2-difluoroethyl)-7-fluoro-1-methyl-4-oxo-4,5-dihydro-1H-pyrrolo[3,2-c]pyridin-3-yl)amino)-N-(methyl-d3)nicotinamide], the IC50 at TYK2-JH2 domain was found to be 0.948 nM. Further, the GI50 in series [1] turned out to be 68.4 nM. Besides, the microsomal CLint at 1 μM was < 7.4 µL/min/mg in series [2] (setting [5]), 15.2 µL/min/mg in series [2] (setting [7]) and 26.4 µL/min/mg in series [2] (setting [9]). The half-life at 1 μM is > 186 min in series [2] (setting [6]), 91.2 min in series [2] (setting [8]) and 52.5 min in series [2] (setting [10]). Also, the fraction unbound at 5 h in series [4] is 0.039.
At TYK2-JH2 domain, `[2H]C([2H])([2H])NC(=O)c1cnc(NC(=O)C2CC2)cc1Nc1csc2ncn(CC)c(=O)c12` [Example 216, 6-(Cyclopropanecarboxamido)-4-((3-ethyl-4-oxo-3,4-dihydrothieno[2,3-d]pyrimidin-5-yl)amino)-N-(methyl-d3)nicotinamide] had a concentration for half-maximal inhibition (IC50) of 0.525 nM. Besides, the GI50 in series [1] is 181 nM. Further, the fraction unbound at 5 h in series [4] is 0.041.
In the case of `[2H]C([2H])([2H])NC(=O)c1cnc(NC(=O)C2CC2)cc1Nc1nn(C)c2ccn(CC(F)(F)F)c(=O)c12` [Example 53, 6-(Cyclopropanecarboxamido)-N-(methyl-d3)-4-((1-methyl-4-oxo-5-(2,2,2-trifluoroethyl)-4,5-dihydro-1H-pyrazolo[4,3-c]pyridin-3-yl)amino)nicotinamide], the IC50 at TYK2-JH2 domain worked out at 0.293 nM. Also, the GI50 in series [1] came out at 144 nM. Moreover, the fraction unbound at 5 h in series [4] was 0.286.
With `CNC(=O)c1cnc(NC(=O)C2CC2)nc1Nc1cccc(-c2ncn(C)n2)c1OC` [Example 65, 2-(Cyclopropanecarboxamido)-4-((2-methoxy-3-(1-methyl-1H-1,2,4-triazol-3-yl)phenyl)amino)-N-methylpyrimidine-5-carboxamide], the GI50 in series [1] is 172 nM. Besides, in series [4], the fraction unbound at 5 h was 0.061.

The values above are taken from US20250115597A1, “TYK2 INHIBITORS AND COMPOSITIONS AND METHODS THEREOF” (LYNK PHARMACEUTICALS CO. LTD., priority 2021, published 2025).
